From article PMC7602288, “Characterization of Novel Dipeptidyl Peptidase-IV Inhibitory Peptides from Soft-Shelled Turtle Yolk Hydrolysate Using Orthogonal Bioassay-Guided Fractionations Coupled with In Vitro and In Silico Study” (Pharmaceuticals, 2020)
Where two headings read alike, the source gives them in different places. Peptide text beside a SMILES is read from it.

Experiments:
[1] = target: T1, human Dipeptidyl-peptidase (DPP-IV) (Homo sapiens, UniProt P27487); assay: DPP-IV inhibitory assay (Gly-Pro-p-nitroanilide substrate, absorbance 405 nm); format: biochemical; conditions: synthetic peptide; nonlinear regression, five concentrations
T1 construct: purchased Sigma Chemical Co. (St. Louis, MO, USA)
T1 sequence (P27487 whole entry): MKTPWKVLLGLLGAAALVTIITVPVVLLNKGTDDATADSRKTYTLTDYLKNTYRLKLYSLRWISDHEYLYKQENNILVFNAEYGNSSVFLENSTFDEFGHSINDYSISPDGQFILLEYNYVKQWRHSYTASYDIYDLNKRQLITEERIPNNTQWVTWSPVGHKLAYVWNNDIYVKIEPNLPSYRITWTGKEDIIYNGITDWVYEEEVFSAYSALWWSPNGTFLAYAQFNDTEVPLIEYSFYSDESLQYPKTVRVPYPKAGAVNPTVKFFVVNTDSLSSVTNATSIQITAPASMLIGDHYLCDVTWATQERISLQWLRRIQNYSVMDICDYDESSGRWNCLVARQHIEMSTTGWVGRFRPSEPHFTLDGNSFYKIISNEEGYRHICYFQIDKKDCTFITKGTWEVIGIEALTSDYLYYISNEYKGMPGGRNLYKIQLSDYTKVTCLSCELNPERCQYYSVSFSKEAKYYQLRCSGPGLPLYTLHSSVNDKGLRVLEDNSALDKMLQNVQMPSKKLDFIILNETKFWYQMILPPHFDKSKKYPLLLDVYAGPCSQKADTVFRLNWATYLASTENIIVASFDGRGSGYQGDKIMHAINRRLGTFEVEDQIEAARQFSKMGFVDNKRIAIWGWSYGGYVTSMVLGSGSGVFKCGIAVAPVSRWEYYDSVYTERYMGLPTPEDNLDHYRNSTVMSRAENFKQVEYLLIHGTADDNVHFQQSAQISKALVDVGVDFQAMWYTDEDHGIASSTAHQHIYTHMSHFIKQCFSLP
From the text: Chinese soft-shelled turtle eggs were collected from Pingtung City, Taiwan. Pepsin (from porcine gastric mucosa), trypsin (from bovine pancreas), α-chymotrypsin (from bovine pancreas, thermolysin (from Geobacillus stearothermophilus), human Dipeptidyl-peptidase (DPP-IV), Gly-Pro-p-nitroaniline (GP_pNA), Iodoacetamide (IAM), and linagliptin were purchased from Sigma Chemical Co. (St. Louis, MO, USA). Formic acid (FA), acetonitrile (ACN), and ammonium bicarbonate (ABC) were acquired from J.T. Baker (Phillipsburg, NJ, USA). Sequencing grade modified trypsin was purchased from Promega (Madison, WI, USA). Trifluoroacetic acid (TFA) was acquired from Alfa Aesar (Lancashire, UK), and Wang resin was obtained from Cleo Salus (Louisville, KY, USA). Deionized water (ddH2O) was collected using the PURELAB® water purification system from ELGA LabWater (Lane End, High Wycombe, UK). All other chemicals used in this study were of reagent grades. HyperSep Retain PEP Polymeric material was purchased from Thermo Scientific Inc. Molecular weight cut-off (3 kDa MWCO) was procured from Millipore (Bedford, MA, USA).
The DPP-IV inhibitory assay was analyzed in triplicate according to the method of Lacroix and Li-Chan using 96-well microplates with slight modification. […] Linagliptin was used as a reference inhibitor in this experiment. All the reagents and samples were dissolved in 1% DMSO buffer. […] The blank and negative control contained 25 µL of 1% DMSO and 25 µL of DPP-IV buffer. The reaction was activated by 50 µL of DPP-IV (1 U/µL) while the blank sample used 50 µL of DPP-IV buffer instead. After 1 h at 37 °C, the mixture was terminated using 100 µL of 1M sodium acetate buffer at pH 4.0. A concentration of peptide that can inhibit fifty percentage of DPP-IV activity was defined as the IC50 value of DPP-IV inhibition peptide. The IC50 value was determined using different concentrations of inhibitor by nonlinear regression of Graphpad Prism 5.0 (GraphPad Software, Inc., La Jolla, CA, USA).

[2] = target: T1, human Dipeptidyl-peptidase (DPP-IV); assay: Stability of synthesized peptides against DPP-IV (pre-incubation experiment, LC-MS and inhibition assay); format: biochemical; conditions: peptide 500 µM; for DPP-IV inhibitory activity, after pre-incubation: after pre-incubation with DPP-IV 3 h at 37 °C
Method: The synthetic peptide was pre-incubated with DPP-IV to determine stability against DPP-IV. […] According to the previous method by Nongonierma et al. with slight modification, 50 μL of peptides (500 µM) dissolved in 1% DMSO were pre-incubated with 100 μL of DPP-IV (1 U/μL) in DPP-IV buffer at 37 °C for 3 h. Consequently, 75 µL of pre-incubation mixture was combined with 25 µL of 2 mM NaOH and 25 µL of 1.6 mM Gly-Pro-p-nitroanilide, and further pre-incubated at 37 °C for 10 min. The mixture was added with 25 µL of DPP-IV buffer and then incubated at 37 °C for 60 min. The reaction was ended using 100 µL of 1M sodium acetate at pH 4.0. The absorbance of each reaction was measured at 405 nm in a SpectraMax 190 Microplate Reader (Molecular Devices, LLC, San Jose, CA, USA) to determine DPP-IV inhibitory activity of peptide after a pre-incubation period. The remaining 75 µL of the original mixture was heat-inactivated at 95 °C for 10 min to end enzyme activity after which it was injected into LC-MS to confirm the stability of the peptide.

[3] = tested on: DPP-IV; conditions: cited from earlier work

Compound: CC(C)C[C@H](NC(=O)[C@@H]1CCCN1C(=O)[C@H](CC(C)C)NC(=O)CNC(=O)[C@@H](NC(=O)[C@@H](N)CC(C)C)C(C)C)C(=O)O [LVGLPL] (H-LVGLPL-OH)
- IC50 [1]: > 2000 µM

Compound: CC(C)C[C@H](N)C(=O)N1CCC[C@H]1C(=O)N[C@@H](CO)C(=O)N[C@@H](Cc1c[nH]c2ccccc12)C(=O)O [LPSW] (H-LPSW-OH)
- IC50 [1]: 270 ± 15.9 µM
- DPP-IV inhibitory activity, after pre-incubation [2]: 55.22%
- DPP-IV inhibitory activity, without pre-incubation [2]: 76.72%

Compound: ILNKEGINY
- IC50 ([3]; peptides from camel milk): 348 µM

Compound: CC(C)C[C@H](NC(=O)[C@H](C)NC(=O)[C@H](CC(C)C)NC(=O)CNC(=O)[C@@H]1CCCN1C(=O)[C@@H](N)C(C)C)C(=O)O [VPGLAL] (H-VPGLAL-OH)
- IC50 [1]: 289 ± 11.9 µM
- DPP-IV inhibitory activity, after pre-incubation [2]: 58.66%
- DPP-IV inhibitory activity, without pre-incubation [2]: 66.14%

Compound: CC(C)C[C@H](NC(=O)[C@H](CCC(N)=O)NC(=O)[C@H](CC(C)C)NC(=O)[C@@H](N)Cc1c[nH]c2ccccc12)C(=O)O [WLQL] (H-WLQL-OH)
- IC50 [1]: 433 ± 40.3 µM
- DPP-IV inhibitory activity, after pre-incubation [2]: 55.28%
- DPP-IV inhibitory activity, without pre-incubation [2]: 53.06%

Compound: LPLPL
- IC50 ([3]; peptides from milk): 325 µM

Compound: GGPASGPAV
- IC50 ([3]; peptides from salmon gelatin): 8140 µM

Compound: CC(C)C[C@H](NC(=O)[C@@H]1CCCN1C(=O)[C@@H](N)CC(C)C)C(=O)N[C@@H](Cc1ccccc1)C(=O)O [LPLF] (H-LPLF-OH)
- IC50 [1]: 464 ± 5.52 µM
- DPP-IV inhibitory activity, after pre-incubation [2]: 41.09%
- DPP-IV inhibitory activity, without pre-incubation [2]: 52.79%
